Test system: CD1 female mouse brain lipidome
Experiment: Brain-region lipid levels (HPLC/MS/MS lipidomics) 2 h after single i.p. 3 mg/kg CP 55,940 vs vehicle
Type: in vivo
Parameters: N-arachidonoyl phenylalanine level, Mean / N-stearoyl tryptophan level, Mean / N-stearoyl proline level, Mean / N-stearoyl leucine level, Mean / N-stearoyl phenylalanine level, Mean / N-stearoyl serine level, Mean / N-stearoyl methionine level, Mean: unit: moles per gram
Details: brainstem, PND 50, 3 mg/kg CP 55,940
Method: The Bloomington Institutional Animal Care and Use Committee of Indiana University reviewed and approved the animal procedures. Female mice from the CD1 strain were utilized to match our study examining THC’s effects on the brain lipidome ([Leishman et al., 2018]). Mice were given a single i.p. injection of either 3 mg/kg CP or 1:1:18 cremophor:ethanol:saline vehicle (please refer to the section “3 mg/kg CP Is Relevant for Synthetic Cannabinoid Abuse and Has Stronger Effects on the Female Mouse Brain Lipidome During Adolescence” for a justification of dose and use of female mice). Three different age groups were given injections: PND 35 and PND 50 adolescents, and adult mice (PND 113). At least eight mice in each age group received CP and at least eight received vehicle. Matching the THC study time course ([Leishman et al., 2018]), mice were sacrificed via rapid decapitation 2 h after injection. Brains were immediately removed and flash-frozen in liquid nitrogen, and then stored at -80°C until dissections were performed. Brains were dissected on an ice-cold dissection plate into the following regions: STR, HIPP, CER, THAL, CTX, HYP, MID, and STEM. These abbreviations for these brain areas will be used exclusively when discussing the results generated by these specific dissections. Each dissected area was immediately placed in liquid nitrogen and then stored at -80°C until used for lipid extraction.
Tissue extracts were performed as previously described ([Bradshaw et al., 2006]; [Stuart et al., 2013]; [Raboune et al., 2014]; [Leishman et al., 2016a],[b], [2017], [2018]). First, samples were shock frozen in liquid nitrogen, weighed, and transferred to a centrifuge tube. The mass of the largest sample was multiplied by 50 to determine how many milliliters of HPLC-grade methanol (Fisher, Fair Lawn, NJ, United States) to add. Then, samples were spiked with 500 pmol deuterium-labeled NAGly (d8NAGly; Cayman Chemical, Ann Arbor, MI, United States). Samples were placed on ice in darkness for 2 h then individually homogenized and centrifuged at 19,000 × g for 20 min at 20°C. Supernatants were diluted with HPLC water (purified in house) to make a solution of 75% water, 25% supernatant. Lipids were partially purified on C18 solid phase extraction columns (Agilent, Palo Alto, CA, United States). A series of four elutions with 1.5 mL of 60%, 75%, 85%, and 100% methanol were collected ([Stuart et al., 2013]; [Leishman et al., 2016a],[b], [2018]).
As previously described ([Bradshaw et al., 2006]; [Tan et al., 2006]; [Smoum et al., 2010]; [Stuart et al., 2013]; [Tortoriello et al., 2013]; [Raboune et al., 2014]; [Leishman et al., 2016a],[b], [2017], [2018]), samples were analyzed using an Applied Biosystems API 3000 triple quadrupole mass spectrometer with electrospray ionization (Foster City, CA, United States). Using an Agilent XDB-C18 reversed phase analytical column and optimized mobile phase gradients, 20 μL from each elution were chromatographed. Two Shimadzu 10ADvp pumps (Columbia, MD, United States) provided the pressure for gradient elution. Mobile phase A: 20% methanol, 80% water (v/v) and 1 mM ammonium acetate (Sigma, St. Louis, MO, United States). Mobile phase B: 100% methanol, 1 mM ammonium acetate. Every method run began with 0% mobile phase B, reached 100% mobile phase B flowing at 0.2 mL/min, and gradually returned to 0% mobile phase B.
This screening library will be referred to as the lipidome when discussing data from this study. HPLC/MS/MS data were analyzed using Analyst software (Applied Biosystems) ([Bradshaw et al., 2006]; [Tan et al., 2006]; [Stuart et al., 2013]; [Tortoriello et al., 2013]; [Raboune et al., 2014]; [Leishman et al., 2016a],[b], [2017], [2018]). Chromatograms (Supplementary Figure 3) were generated by determining the retention time of analytes from the analytical column with a [M-1] or [M+1] parent peak and a fragmentation peak corresponding to the programmed values. […]

In the case of CCCCCCC(C)(C)c1ccc([C@@H]2C[C@H](O)CC[C@H]2CCCO)c(O)c1 [CP 55,940], the “N-arachidonoyl glycine level, Mean” value is reported as 9.26E-12, the “N-arachidonoyl methionine level, Mean” value is reported as “PISSR” and the “N-arachidonoyl phenylalanine level, Mean” value is reported as 3.18E-13. For the same compound, the “N-arachidonoyl proline level, Mean” value was “BDL”, the “N-arachidonoyl serine level, Mean” value was 5.36E-12 and the “N-arachidonoyl taurine level, Mean” value was 1.14E-11. The “N-arachidonoyl tryptophan level, Mean” value was “BDL”, the “N-arachidonoyl tyrosine level, Mean” value was 2.42E-13 and the “N-docosahexaenoyl GABA level, Mean” value was 9.05E-13. For the same compound, the “N-docosahexaenoyl alanine level, Mean” value was “PISSR”, the “N-docosahexaenoyl ethanolamine level, Mean” value was 3.73E-11 and the “N-docosahexaenoyl glycine level, Mean” value was 1.5E-12. The “N-docosahexaenoyl leucine level, Mean” value was 1.24E-13, the “N-docosahexaenoyl methionine level, Mean” value was “PISSR” and the “N-docosahexaenoyl phenylalanine level, Mean” value was 1.89E-13. The “N-docosahexaenoyl proline level, Mean” value was “BDL”, the “N-docosahexaenoyl serine level, Mean” value was 1.33E-11 and the “N-docosahexaenoyl tryptophan level, Mean” value was “BDL”. For the same compound, the “N-docosahexaenoyl tyrosine level, Mean” value was 4.65E-13, the “N-docosahexaenoyl valine level, Mean” value was “BDL” and the “N-linoleoyl GABA level, Mean” value was 6.01E-13. The “N-linoleoyl alanine level, Mean” value was 1.01E-13, the “N-linoleoyl ethanolamine level, Mean” value was 3.38E-11 and the “N-linoleoyl glycine level, Mean” value was 4.12E-13. The “N-linoleoyl leucine level, Mean” value was 4.41E-14, the “N-linoleoyl methionine level, Mean” value was “PISSR” and the “N-linoleoyl phenylalanine level, Mean” value was “PISSR”. For the same compound, the “N-linoleoyl proline level, Mean” value was “BDL”, the “N-linoleoyl serine level, Mean” value was 6.34E-11 and the “N-linoleoyl tryptophan level, Mean” value was “BDL”. For the same compound, the “N-linoleoyl tyrosine level, Mean” value was “PISSR”, the “N-linoleoyl valine level, Mean” value was “BDL” and the “N-nervonoyl valine level, Mean” value was “BDL”. For the same compound, the “N-oleoyl GABA level, Mean” value was 3.95E-12, the “N-oleoyl alanine level, Mean” value was 1.3E-12 and the “N-oleoyl dopamine level, Mean” value was “BDL”. The “N-oleoyl ethanolamine level, Mean” value was 7.29E-11, the “N-oleoyl glycine level, Mean” value was 5.38E-12 and the “N-oleoyl leucine level, Mean” value was 4.93E-13. For the same compound, the “N-oleoyl methionine level, Mean” value was 1.84E-13, the “N-oleoyl phenylalanine level, Mean” value was 7.71E-13 and the “N-oleoyl proline level, Mean” value was “BDL”. The “N-oleoyl serine level, Mean” value was 1.1E-10, the “N-oleoyl tryptophan level, Mean” value was “BDL” and the “N-oleoyl tyrosine level, Mean” value was 2.91E-13. The “N-oleoyl valine level, Mean” value was 6.02E-14, the “N-palmitoyl GABA level, Mean” value was 6.41E-12 and the “N-palmitoyl alanine level, Mean” value was 3.07E-12. The “N-palmitoyl ethanolamine level, Mean” value was 6.28E-11, the “N-palmitoyl glycine level, Mean” value was 1.47E-11 and the “N-palmitoyl leucine level, Mean” value was 1.11E-12.
